{
  "source": "patent US9670480B2",
  "about": "“Genome-wide construction of Schizosaccharomyces pombe heterozygous deletion mutants containing gene-specific barcodes by the methods of 4-round serial or block PCR, or total gene synthesis thereof” (Korea Research Institute of Bioscience and Biotechnology, priority 2008, dated 2017)",
  "key": {"Wild-type SP286 strain": {"system": "Wild-type SP286 strain", "test": "IC50 measurement of growth inhibition in YES broth (final O.D600, Prism)", "type": "cell-based", "settings": "Schizosaccharomyces pombe, 30° C., 24 hours, read-out: IC50 (drug-induced inhibition against cell growth)", "experimental": "In order to determine the concentration of the chemical for the treatment, 50% inhibitory concentration (IC50) was first measured. Wild-type SP286 strain was grown to O.D600=2.0 in YES broth and inoculated with from 5- to 10-fold serial dilutions of the chemical to O.D600=0.1, followed by incubation at 30° C. for 24 hours. At each concentration of the chemical, the cultures were measured for final O.D600 values which were then plotted against Log [Chemical Concentration]. On the basis of these plots, IC50 values were automatically calculated using Prism Software (version 3.0, GraphPad Software Inc., San Diego, Calif.). Scientific experience made it possible to determine the concentrations of the chemical at around the appropriate IC50 values.\nIn order to screen terbinafine's modes of action with the GeneChip, first, the treatment concentrations of drug were determined by the measurements of IC50 obtained in the above-mentioned method. In this regard, relative rates of drug-induced inhibition against cell growth were obtained by treating the cells with terbinafine at doses of 0.1 nM, 1 nM, 5 nM, 10 nM, 50 nM, 100 nM, 500 nM and […]. Analysis with Prism software determined IC50=40 nM (FIG. 11)."}, "[1]": {"system": "erg1 heterozygous deletion mutant", "test": "Reconfirmation of GeneChip result on YES agar plates containing terbinafine", "type": "cell-based, Schizosaccharomyces pombe", "experimental": "(§1) Since the drug's modes of action detected with the GeneChip might include the false positive signals resulting experiment errors and false chip analysis, all the top 10 drug's modes of action, except non-specific ribosome-related genes, were cultured again on YES agar plates containing terbinafine. […] Therefore, the genes erg1 and pmm1 within the red boxes were verified as being targets of terbinafine."}, "[2]": {"system": "pmm1 heterozygous deletion mutant", "test": "Reconfirmation of GeneChip result on YES agar plates containing terbinafine", "type": "cell-based, Schizosaccharomyces pombe", "experimental": "as §1"}, "[3]": {"system": "smb1 heterozygous deletion mutant", "test": "Reconfirmation of GeneChip result on YES agar plates containing terbinafine", "type": "cell-based, Schizosaccharomyces pombe", "experimental": "as §1"}},
  "data": [
    {"smiles": "CN(C/C=C/C#CC(C)(C)C)Cc1cccc2ccccc12", "note": "[terbinafine]", "values": [
      {"measurement": "IC50", "setting": "Wild-type SP286 strain", "result": 0.04, "unit": "µM"},
      {"measurement": "plate reconfirmation of GeneChip-based mode of action, erg1", "setting": "[1]", "result": "same results as in the chip"},
      {"measurement": "plate reconfirmation of GeneChip-based mode of action, pmm1", "setting": "[2]", "result": "same results as in the chip"},
      {"measurement": "plate reconfirmation of GeneChip-based mode of action, smb1", "setting": "[3]", "result": "difference from the chip result"}
    ]}
  ]
}
